Test results taken from PMC8795197, “Safety and activity of WX-0593 (Iruplinalkib) in patients with ALK- or ROS1-rearranged advanced non-small cell lung cancer: a phase 1 dose-escalation and dose-expansion trial” (Signal Transduction and Targeted Therapy, 2022).
Like-named read-outs stand apart in the source and are kept apart here.

Legend:
[1] = General pharmacology: CNS and respiratory system; assay type: in vivo, rats
Method: […]. Therefore, WX-0593 has a low risk of cardiotoxicity. There were no effects on the CNS and respiratory system in rats at doses of 3, 10, and 30 mg/kg. However, WX-0593 10 and 30 mg/kg may result in benign respiratory rate and decreases in minute ventilation in female rats. There were no effects on the cardiovascular system, blood pressure, ECG parameters or waveforms in monkeys at doses of 5, 10, and 25 mg/kg; 10 and 25 mg/kg may result in mild decreases in heart rate (within the normal range) and PR prolongation and QTc shortening associated with bradycardia within the normal range (no statistical difference when compared to the control arm). No cardiovascular system adverse reactions related to the test product were found. The human equivalent dose (using 60 kg) is 3636 mg/person in CNS, 3636 mg/person in male respiratory system and 363.6 mg/person in female respiratory system, and 607 mg/person in cardiovascular system.

[2] = target: M1 (Homo sapiens, UniProt P11229); test: GPCR antagonist screening assay; assay type: cell-based
Sequence of M1 (P11229 whole entry): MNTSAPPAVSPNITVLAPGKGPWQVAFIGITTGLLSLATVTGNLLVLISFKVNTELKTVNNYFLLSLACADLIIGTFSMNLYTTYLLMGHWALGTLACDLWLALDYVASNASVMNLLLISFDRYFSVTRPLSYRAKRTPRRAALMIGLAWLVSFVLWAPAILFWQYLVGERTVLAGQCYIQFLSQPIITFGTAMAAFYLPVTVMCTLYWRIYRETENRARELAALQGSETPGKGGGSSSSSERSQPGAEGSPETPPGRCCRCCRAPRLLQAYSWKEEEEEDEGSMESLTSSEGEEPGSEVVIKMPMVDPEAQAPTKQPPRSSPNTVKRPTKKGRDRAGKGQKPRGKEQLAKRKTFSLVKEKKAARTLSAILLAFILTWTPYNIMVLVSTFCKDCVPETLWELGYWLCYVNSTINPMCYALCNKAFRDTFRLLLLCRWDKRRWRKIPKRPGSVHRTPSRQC

[3] = Reproductive toxicity study; conditions: rat, in vivo
[4] = tested on: Ba/F3; test: Cell proliferation inhibition assay; assay type: cell-based
[5] = Phase 1 dose-escalation phase: plasma pharmacokinetics; assay type: in vivo, human; conditions: for Tmax / AUC(0-t) / AUC(0-inf) / Cmax / MRT inf / half-life: human, plasma, oral; for Tmax / AUC(0-t) / AUC(0-inf) / Cmax / MRT inf / half-life / Cssmax / Cssmin / Racc_AUC / Racc_Cmax: mean (SD); for MRT inf: read-out: MRT0-∞; for half-life: read-out: T1/2z (converted)
Method: Three patients were assigned to each dose level. In the dosing cohort of 30 mg, treatment included a single WX-0593 dose, followed by 7-day PK evaluation period, and subsequent daily oral dosing for continuous 21 days. In other dosing cohorts, WX-0593 was administered orally as a single dose in the 4-day PK run-in period, followed by dosing once per day in continuous 21-day cycles. The DLT observation period was the first cycle of WX-0593 treatment (the single-dose period and 21 days of multiple-dose period).
In the dose-escalation phase, blood samples were collected at protocol-specified time points after single and multiple dose administration of WX-0593 in all dosing cohorts for assessment of PK parameters.
Safety analysis was performed in the SS, which was comprised of all patients treated with one dose of WX-0593 and with safety data recorded. Efficacy analysis was performed in the FAS, which was defined as all patients treated with at least one dose of WX-0593. The PK analysis set included all patients treated with at least one dose of WX-0593 and with at least one evaluable PK sample.
Descriptive statistics were carried out to summarize patients’ baseline characteristics and safety. […] All time-to-event data (PFS, TTP, DOR, and OS) and their corresponding 95% CIs were estimated by Kaplan–Meier methods. PK parameter analyses were done with Phoenix WinNonlin version 8.0. All other statistical analyses were conducted using SAS version 9.4.
Blood sampling time points for single dose: Blood samples are collected before dosing and 0.5 h, 1 h, 2 h, 3 h, 4 h, 5 h, 6 h, 8 h, 12 h, 24 h, 32 h, 48 h, and 72 h after dosing (after adjustment according to the pharmacokinetic parameters of patients in the first dose arm).
Blood sampling time points for repeated dosing: Repeated dosing starts 4 days after single dose administration. Blood samples are collected before repeated dosing on Days 7, 14, and 21 before repeated dosing, and within 24h after dosing (0.5 h, 1 h, 2 h, 3 h, 4 h, 5 h, 6 h, 8 h, 12 h, 24 h) for measurement of blood pharmacokinetic parameters.
The plasma concentration of WX-0593 will be determined using LC-MS.

[6] = tested on: Ba/F3 (EML4-ALK-C1156Y); test: Cell proliferation inhibition assay; assay type: cell-based
[7] = multiple dosing 120 mg (n = 11)
[8] = multiple dosing 180 mg (n = 13)
[9] = multiple dosing 240 mg (n = 12)

## COc1cc(N2CCC3(CCN(C)CC3)CC2)ccc1Nc1ncc(Cl)c(Nc2ccccc2P(C)(C)=O)n1 [WX-0593]
[1]; 3, 10 and 30 mg/kg
  effects on the CNS and respiratory system: no effects
[1]; using 60 kg
  human equivalent dose, CNS: 3636 mg/person
  human equivalent dose, female respiratory system: 363.6 mg/person
  human equivalent dose, male respiratory system: 3636 mg/person
[2]
  IC50: > 10 µM
[3]
  NOAEL as multiple of the effective dose in nude mice: 8 times
[3]; read-out: NOAEL of fertility and early embryo developmental toxicity
  NOAEL: 10 mg/kg
[4]
  IC50 relative to ALK-related cells: significantly higher
[5]; 180 mg, once daily
  free Cavg,ss: 127 nM
[5]; 30 mg, multiple dosing 30 mg (n = 3)
  Tmax: 4.33 h
[5]; 30 mg, multiple dosing 30 mg (n = 3), read-out: AUC0–24
  AUC(0-t): 1150 ng·h/mL
[5]; 30 mg, single dose 30 mg (n = 3)
  Tmax: 2.32 h
[5]; 30 mg, single dose 30 mg (n = 3), read-out: AUC0-t
  AUC(0-t): 1310 ng·h/mL
[5]; 60 mg, multiple dosing 60 mg (n = 3)
  Tmax: 4.01 h
[5]; 60 mg, multiple dosing 60 mg (n = 3), read-out: AUC0–24
  AUC(0-t): 4960 ng·h/mL
[5]; 60 mg, single dose 60 mg (n = 3)
  Tmax: 1.33 h
[5]; 60 mg, single dose 60 mg (n = 3), read-out: AUC0-t
  AUC(0-t): 3650 ng·h/mL
[5]; 90 mg, multiple dosing 90 mg (n = 8)
  Tmax: 2.87 h
[5]; 90 mg, multiple dosing 90 mg (n = 8), read-out: AUC0–24
  AUC(0-t): 4390 ng·h/mL
[5]; 90 mg, single dose 90 mg (n = 8)
  Tmax: 1.69 h
[5]; 90 mg, single dose 90 mg (n = 8), read-out: AUC0-t
  AUC(0-t): 5430 ng·h/mL
[5]; 120 mg, multiple dosing 120 mg (n = 11)
  Tmax: 2.79 h
[5]; 120 mg, multiple dosing 120 mg (n = 11), read-out: AUC0–24
  AUC(0-t): 6120 ng·h/mL
[5]; 120 mg, single dose 120 mg (n = 11)
  Tmax: 1.81 h
[5]; 120 mg, single dose 120 mg (n = 11), read-out: AUC0-t
  AUC(0-t): 7780 ng·h/mL
[5]; 180 mg, multiple dosing 180 mg (n = 13)
  Tmax: 2.79 h
[5]; 180 mg, multiple dosing 180 mg (n = 13), read-out: AUC0–24
  AUC(0-t): 7210 ng·h/mL
[5]; 180 mg, single dose 180 mg (n = 12)
  Tmax: 2.29 h
[5]; 180 mg, single dose 180 mg (n = 12), read-out: AUC0-t
  AUC(0-t): 6620 ng·h/mL
[5]; 240 mg, multiple dosing 240 mg (n = 12)
  Tmax: 3.27 h
[5]; 240 mg, multiple dosing 240 mg (n = 12), read-out: AUC0–24
  AUC(0-t): 12700 ng·h/mL
[5]; 240 mg, single dose 240 mg (n = 10)
  Tmax: 2.5 h
[5]; 240 mg, single dose 240 mg (n = 10), read-out: AUC0-t
  AUC(0-t): 15500 ng·h/mL
[5]; 300 mg, multiple dosing 300 mg (n = 2)
  Tmax: 1.24 h
[5]; 300 mg, multiple dosing 300 mg (n = 2), read-out: AUC0–24
  AUC(0-t): 23400 ng·h/mL
[5]; 300 mg, single dose 300 mg (n = 3)
  Tmax: 2.71 h
[5]; 300 mg, single dose 300 mg (n = 3), read-out: AUC0-t
  AUC(0-t): 14900 ng·h/mL
[5]; single dose 30 mg (n = 3)
  AUC(0-inf): 1710 ng·h/mL
  Cmax: 105 ng/mL
  MRT inf: 20.7 h
  half-life: 15.5 h
[5]; single dose 60 mg (n = 3)
  AUC(0-inf): 4060 ng·h/mL
  Cmax: 305 ng/mL
  MRT inf: 28.3 h
  half-life: 25.7 h
[5]; single dose 90 mg (n = 8)
  AUC(0-inf): 6210 ng·h/mL
  Cmax: 474 ng/mL
  MRT inf: 24 h
  half-life: 21.9 h
[5]; single dose 120 mg (n = 11)
  AUC(0-inf): 8120 ng·h/mL
  Cmax: 571 ng/mL
  MRT inf: 25.6 h
  half-life: 22.2 h
[5]; single dose 180 mg (n = 12)
  AUC(0-inf): 7320 ng·h/mL
  Cmax: 401 ng/mL
  MRT inf: 27.9 h
  half-life: 23.9 h
[5]; single dose 240 mg (n = 10)
  AUC(0-inf): 16900 ng·h/mL
  Cmax: 1000 ng/mL
  MRT inf: 25 h
  half-life: 22.9 h
[5]; single dose 300 mg (n = 3)
  AUC(0-inf): 17100 ng·h/mL
  Cmax: 905 ng/mL
  MRT inf: 32.4 h
  half-life: 27.5 h
[5]; multiple dosing 30 mg (n = 3)
  Cssmax: 95.13 (54.02) ng/mL
  Cssmin: 25.00 (8.04) ng/mL
  Racc_AUC: 116.256 (32.91) %
  Racc_Cmax: 89.141 (35.00) %
[5]; multiple dosing 60 mg (n = 3)
  Cssmax: 419.00 (128.24) ng/mL
  Cssmin: 117.87 (59.10) ng/mL
  Racc_AUC: 203.993 (32.03) %
  Racc_Cmax: 150.689 (39.79) %
[5]; multiple dosing 90 mg (n = 8)
  Cssmax: 324.38 (109.58) ng/mL
  Cssmin: 103.65 (29.27) ng/mL
  Racc_AUC: 149.978 (88.53) %
  Racc_Cmax: 117.082 (97.12) %
[5]; [7]
  Cssmax: 479.20 (151.70) ng/mL
  Cssmin: 139.24 (34.22) ng/mL
  Racc_AUC: 130.809 (36.42) %
  Racc_Cmax: 111.519 (44.39) %
[5]; [8]
  Cssmax: 529.38 (203.22) ng/mL
  Cssmin: 164.10 (77.76) ng/mL
  Racc_AUC: 174.265 (35.49) %
  Racc_Cmax: 138.238 (26.54) %
[5]; [9]
  Cssmax: 960.50 (234.47) ng/mL
  Cssmin: 236.00 (56.80) ng/mL
  Racc_AUC: 160.210 (77.95) %
  Racc_Cmax: 127.749 (58.74) %
[5]; multiple dosing 300 mg (n = 2)
  Cssmax: 1685.00 (657.61) ng/mL
  Cssmin: 623.50 (402.34) ng/mL
  Racc_AUC: 309.507 (151.00) %
  Racc_Cmax: 223.005 (88.95) %
[5]; once-daily 30 to 300 mg, AUC0–24
  dose proportionality of exposure: increased in an approximately dose-proportion manner
[6]
  growth inhibition: significantly inhibits the growth
